Data reported in PMC9028219 (Frontiers in Nutrition, 2022).

Tested on: Sarcoma-180 (S-180) tumor
Conditions: 20 mg/kg bw i.p.
Procedure: The S-180 cells were collected from Swiss albino mice harboring 8–10 days old cells from the peritoneal cavity. On day 0, the S-180 cells (1 × 10^7 cells/ml) were injected intra-peritoneal in non-inbred female Swiss albino mice (22–25 g, 8–10 weeks old) selected for the experiment. The next day (Day 1), the animals were randomized and divided into three treatment groups, one positive control group and one vehicle control group containing 5 animals in each group. […] The fourth group was given 5-fluorouracil; positive control at a dose of 20 mg/kg bw i.p. from day 1–9, and the fifth group (control) was administered normal saline (0.2 ml i.p.) for 9 days. On day 12, the animals were sacrificed, and the fluid was collected from each mouse's peritoneal cavity to evaluate tumor growth ([43]). The tumor growth inhibition was calculated using the following formula.
Tumor Growth Inhibition(%)=(Number of tumor cells in control group-Number of tumor cells in the test group)/Number of tumor cells in the control group×100

[1] = days 1-9, evaluated day 12, n = 5

Compound: O=c1[nH]cc(F)c(=O)[nH]1 [5 FU, 5-fluorouracil, reference compound]
- Tumor growth inhibition (days 1-9, evaluated day 12): 93.75%
- Tumor cell count Mean ± S.E [1]: 5 ± 0.28^*** 1 × 10^7
- Tumor volume Mean ± S.E [1]: 0.16 ± 0.01 mL
- Tumor weight Mean ± S.E [1]: 0.16 ± 0.01 g
